Article PMC11738990, “A small-molecule TNIK inhibitor targets fibrosis in preclinical and clinical models” (Nature Biotechnology, 2024)
Several values for one entry are separate records, joined by “and”; a condition that tells them apart may be missing. Equal entries are not always repeated.

What was measured:
Sprague Dawley rats = test: Bleomycin-induced lung fibrosis model, inhalation administration; assay type: in vivo, rat; conditions: individual animals, Fig 4
Procedure: On day 1 of the study, bleomycin hydrochloride was administered to 8–9-week-old Sprague Dawley rats at a final concentration of 1.5 mg ml^−1 in sodium chloride solution (dosed volume at 1.0 ml per kg) by intratracheal atomization (once in the morning and once in the afternoon) to build the pulmonary fibrosis model.
A German PARI compression atomizer (PARI TurboBOY) was set at an aerosol flow rate of 9–10 l min^−1. […] The dilution flow of aerosol was set at 0 l min^−1, and the pumping-out flow from the chamber was set at 6 l min^−1. The fluid rate was set at 0.5 ml min^−1 for test article replenishment. Before nebulization, aerosol-generation conditions were validated three times.
And these parameters were recorded in real time during the experiment.
For concentration assessment, a glass fiber filter membrane (φ = 37 mm) was used to measure aerosol concentrations during drug administration from approximately day 8 to day 28. Sampling was taken at 5 min (±1 min) after drug administration from a random exposure port. […] Aerosol particle size parameters were calculated with the system software: median mass aerodynamic diameter (MMAD), geometric standard deviation, fine particle fraction (percentage of fine particles with MMAD < 5 μm), etc.
On day 29 and before euthanasia, animals were anesthetized with chloral hydrate (90 mg ml^−1, 5 ml per kg, i.p.). Necks were cut longitudinally at the middle to isolate trachea, and a catheter was intubated into the trachea toward the tail direction and fixed with a suture thread. The anesthetized animals were placed into the plethysmography chamber, to which the airway was connected. The AniRes2005 animal lung function-analysis system was used to assess parameters including FVC, airway resistance and pulmonary compliance. The ventilator respiration rate was set to 65 beats per minute; the respiration ratio was set to 20:10; the negative pressure controller was set to 30 cm H2O. FVC detection was set to pressure-control mode, while pressure was set to 30 cm H2O. The startup mode was selected to automatically detect at the end of breath, and the ‘Start’ button was clicked to passively inhale and then turned to exhale after reaching the set pressure value. Next, the ‘Stop’ button was clicked to complete an FVC detection. Each animal was evaluated for FVC at least five times. The final result was the mean value after the maximum and minimum data were excluded for analysis.

C57BL/6 mice = test: Bleomycin-induced lung fibrosis model; assay type: in vivo, mouse
Procedure: Mice received bleomycin on day 1 at a dose of 0.66 mg per kg (equivalent to 1 U per kg), in a volume of 50 μl by intratracheal administration, or received saline (sham group). On day 7, dosing with the corresponding compounds was started. The vehicle group (group 1) was treated with 0.5% methylcellulose BID. […] On days 5 and 21, lung function measurement was performed. On day 28, all animals were killed, and blood and tissue samples were collected along with BALF.
Lung function was measured according to the HDB standard protocol. Expiratory time, relaxation time, peak expiratory flow and peak inspiratory flow were collected and used to calculate Penh data.
Mice were first anesthetized with Zoletil–xylazine (50 mpk and 10 mpk, i.p.). Next, a 1.5–2-cm longitudinal incision was made on the ventral side of the neck to expose the trachea by blunt dissection, and curved forceps were placed underneath the trachea. A 10–12-cm piece of suture was then threaded underneath the trachea using forceps. The ends of the suture were then pulled cranially to ‘stretch’ the trachea toward the surgeon. A 20-G needle was then used to poke a hole in the trachea as close to the larynx as possible. A 22-G blunt stainless steel needle connected to PE tubing was placed in the hole and inserted approximately 5–8 mm into the trachea. The cannula was secured in the trachea by tying the suture around it with an overhand knot. A 1-ml syringe containing 0.4 ml saline was gently pushed forward and backward three times to recover BALF fluid. BALF was transferred into empty tubes and stored on ice. This process was repeated twice with 0.3 ml saline for a total volume of 1 ml.
Total cell numbers were counted with a standard hemocytometer by mixing 20 μl BALF with 20 μl trypan blue. Cytospins were prepared by cytocentrifugation using Cytospins at 106g for 5 min, and then smears of BALF cells were stained with Diff-Quick stain. Cell differentiation was performed by counting at least 400 cells using standard hemocytologic criteria to classify them as alveolar macrophages or monocytes, neutrophils, eosinophils or lymphocytes. The rest of the BALF fluid was centrifuged, and supernatants were collected and stored at −80 °C for cytokine, chemokine and total protein analysis.
From the collected BALF, concentrations of cytokines were measured from mice in groups 2–7 killed on day 28. Mouse BALF cytokines and chemokines were measured using the ELISA Analysis Kit (Sinobest Bio). Mouse BALF soluble collagen was measured using the Soluble Collagen kit (Biocolor). Mouse lung hydroxyproline content was measured using the Hydroxyproline Assay Kit (Njjcbio).
Left lung lobes were removed from each mouse and fixed in 10% NBF solution, embedded in paraffin and processed to obtain 4-μm sections for staining with H&E. H&E-stained slides were scanned using an Aperio ScanScope Model CS2 (Leica) at ×200 magnification. Images were then opened in the HALO Plus 5 workstation (version 2.3, Indica Labs) program. Using the pen annotation tool, the whole-lung section was selected as an annotation layer. The area of vessels was defined as background using the exclusion drawing tool. The total inflammation area was quantified by selecting the dark blue inflammation cells using the pen annotation tool manually. The percentage of H&E staining (inflammation area/total area of the lung) in the selected annotation was then calculated using the program.
Masson’s trichrome staining was conducted using a ready-to-use kit (Trichrome Stain (Masson) Kit, HT15, Sigma-Aldrich) as described by the manufacturer.
Lung sections were cut at a thickness of 4 μm, dried in an oven for 1 h and stained with M&T using our standard protocol.

[1] = G2 INS018_055 3mpk BID, individual animals, Fig 3B-C, 3 mg/kg
[2] = G3 INS018_055 10mpk BID, individual animals, Fig 3B-C, 10 mg/kg

CC(C)n1cnc(-c2ccc(F)cc2)c1-c1nc(C(=O)Nc2ccc(N3CCN(C)CC3)cc2)c[nH]1 [INS018_055, 2-[4-(4-fluorophenyl)-1-(prop-2-yl)imidazol-5-yl]-N-[4-(4-methylhexahydropyrazin-1-yl)phenyl]-1H-imidazole-4-carboxamide]
Cdyn (Sprague Dawley rats; INS018_055 0.1 mg/mL): 0.2868 mL/cmH2O and 0.282 mL/cmH2O and 0.2528 mL/cmH2O and 0.2276 mL/cmH2O and 0.2464 mL/cmH2O and 0.2949 mL/cmH2O and 0.266 mL/cmH2O and 0.2918 mL/cmH2O and 0.3725 mL/cmH2O | FVC (Sprague Dawley rats; INS018_055 0.1 mg/mL): 11.667 and 10.372 and 9.331 and 9.408 and 9.013 and 11.225 and 10.246 and 9.406 and 11.458 | MT staining for fibrosis (Sprague Dawley rats; INS018_055 0.1 mg/mL): 39.4049 and 24.0295 and 21.4518 and 29.9242 and 25.5526 and 41.2629 and 23.5476 and 24.3272 and 18.8851 | Modified Ashcroft Score (Sprague Dawley rats; INS018_055 0.1 mg/mL): 3.58 and 3.5 and 3.67 and 4.67 | RL (Sprague Dawley rats; INS018_055 0.1 mg/mL): 0.2183 cmH2O and 0.2228 cmH2O and 0.249 cmH2O and 0.2763 cmH2O and 0.2553 cmH2O and 0.2139 cmH2O and 0.2369 cmH2O and 0.215 cmH2O and 0.1673 cmH2O | Cdyn (Sprague Dawley rats; INS018_055 0.3 mg/mL): 0.1877 mL/cmH2O and 0.26 mL/cmH2O and 0.28 mL/cmH2O and 0.2261 mL/cmH2O and 0.2364 mL/cmH2O and 0.2626 mL/cmH2O and 0.2848 mL/cmH2O and 0.214 mL/cmH2O and 0.2795 mL/cmH2O | FVC (Sprague Dawley rats; INS018_055 0.3 mg/mL): 8.356 and 10.531 and 9.955 and 8.979 and 9.285 and 9.684 and 11.437 and 8.52 and 10.758 | MT staining for fibrosis (Sprague Dawley rats; INS018_055 0.3 mg/mL): 37.0531 and 32.9417 and 33.2766 and 28.9122 and 24.8997 and 24.7844 and 23.0018 and 21.403 and 19.6831 | Modified Ashcroft Score (Sprague Dawley rats; INS018_055 0.3 mg/mL): 3.33 and 3.5 and 3.42 and 3.17 and 3.25 | RL (Sprague Dawley rats; INS018_055 0.3 mg/mL): 0.334 cmH2O and 0.2417 cmH2O and 0.2246 cmH2O and 0.2783 cmH2O and 0.266 cmH2O and 0.2397 cmH2O and 0.2213 cmH2O and 0.2931 cmH2O and 0.2253 cmH2O | Cdyn (Sprague Dawley rats; INS018_055 1 mg/mL): 0.2887 mL/cmH2O and 0.2534 mL/cmH2O and 0.2831 mL/cmH2O and 0.2977 mL/cmH2O and 0.3373 mL/cmH2O and 0.3256 mL/cmH2O and 0.3052 mL/cmH2O and 0.2663 mL/cmH2O and 0.1759 mL/cmH2O | FVC (Sprague Dawley rats; INS018_055 1 mg/mL): 11.605 and 10.16 and 11.107 and 11.731 and 11.449 and 11.248 and 11.212 and 9.823 and 10.688 | MT staining for fibrosis (Sprague Dawley rats; INS018_055 1 mg/mL): 13.0601 and 19.1932 and 11.5913 and 20.3302 and 12.2482 and 5.166 and 2.8883 and 26.6827 and 9.6738 | Modified Ashcroft Score (Sprague Dawley rats; INS018_055 1 mg/mL): 3.08 and 2.5 and 1.92 and 1.58 | RL (Sprague Dawley rats; INS018_055 1 mg/mL): 0.2246 cmH2O and 0.2544 cmH2O and 0.2308 cmH2O and 0.2117 cmH2O and 0.1856 cmH2O and 0.1933 cmH2O and 0.2063 cmH2O and 0.2431 cmH2O and 0.3604 cmH2O | Cdyn (Sprague Dawley rats; INS018_055 6 mg/mL): 0.2872 mL/cmH2O and 0.2596 mL/cmH2O and 0.2974 mL/cmH2O and 0.09892 mL/cmH2O and 0.2655 mL/cmH2O and 0.2689 mL/cmH2O and 0.283 mL/cmH2O and 0.2425 mL/cmH2O and 0.303 mL/cmH2O | FVC (Sprague Dawley rats; INS018_055 6 mg/mL): 10.938 and 9.019 and 10.156 and 12.074 and 10.094 and 10.135 and 10.127 and 8.751 and 10.893 | MT staining for fibrosis (Sprague Dawley rats; INS018_055 6 mg/mL): 11.7864 and 15.1925 and 36.9642 and 17.393 and 15.0833 and 12.2135 and 12.9504 and 11.5722 and 12.5986 | Modified Ashcroft Score (Sprague Dawley rats; INS018_055 6 mg/mL): 2.25 and 3.08 and 3 | RL (Sprague Dawley rats; INS018_055 6 mg/mL): 0.2197 cmH2O and 0.2419 cmH2O and 0.2117 cmH2O and 0.6313 cmH2O and 0.2427 cmH2O and 0.2338 cmH2O and 0.2227 cmH2O and 0.2591 cmH2O and 0.2072 cmH2O | reduction in fibrotic area vs vehicle (C57BL/6 mice; 3 mg per kg BID): over 50% | reduction in fibrotic area vs vehicle (C57BL/6 mice; 10 mg per kg BID): more than 75% | reduction in fibrotic area vs vehicle (C57BL/6 mice; 30 mg per kg BID): more than 75% | HE staining (inflammation area) (C57BL/6 mice; 3mpk BID, individual animals): 16.35 and 17.87 and 12.71 and 1.09 and 10.2 and 19.47 and 0.4 and 43.83 and 48.17 and 4.33 | IL-1beta in BALF (C57BL/6 mice; 3mpk BID, individual animals): 154.02 and 147.65 and 144.47 and 164.21 and 155.93 and 168.67 and 177.59 | IL-6 in BALF (C57BL/6 mice; 3mpk BID, individual animals): 126.67 and 118.83 and 123.05 and 144.15 and 121.24 and 147.77 and 123.65 and 122.44 and 139.33 | monocytes, cell count in BALF (C57BL/6 mice; 3mpk BID, individual animals): 48000 and 77000 and 128800 and 211900 and 99500 and 150400 and 143100 and 79600 and 62000 | neutrophils, cell count in BALF (C57BL/6 mice; 3mpk BID, individual animals): 31200 and 500 and 700 and 0 and 1000 | HE staining (inflammation area) (C57BL/6 mice; 10mpk BID, individual animals): 21.7 and 0.11 and 5.58 and 22.87 and 0.24 and 8.94 and 0.45 and 42.15 and 0.46 and 0.26 | IL-1beta in BALF (C57BL/6 mice; 10mpk BID, individual animals): 241.92 and 204.98 and 199.25 and 226 and 212.62 and 229.18 and 207.53 and 202.43 and 189.69 and 227.91 | IL-6 in BALF (C57BL/6 mice; 10mpk BID, individual animals): 201.44 and 191.8 and 156.22 and 187.57 and 178.53 and 200.84 and 157.42 and 203.86 and 172.5 | monocytes, cell count in BALF (C57BL/6 mice; 10mpk BID, individual animals): 40000 and 80000 and 116200 and 4200 and 172000 and 84000 and 29600 and 114100 and 79200 and 38100 | neutrophils, cell count in BALF (C57BL/6 mice; 10mpk BID, individual animals): 500 and 0 and 200 and 700 | HE staining (inflammation area) (C57BL/6 mice; 30mpk BID, individual animals): 48.7 and 0.62 and 0.2 and 3.2 and 0.42 and 0.24 and 10.41 and 0.95 and 7.2 and 3.59 | IL-1beta in BALF (C57BL/6 mice; 30mpk BID, individual animals): 205.62 and 188.42 and 203.7 and 211.35 and 200.52 and 228.54 and 189.06 and 180.78 and 190.33 and 224.09 | IL-6 in BALF (C57BL/6 mice; 30mpk BID, individual animals): 147.17 and 151.39 and 139.93 and 159.83 and 139.33 and 174.91 and 170.69 and 171.9 and 168.28 | monocytes, cell count in BALF (C57BL/6 mice; 30mpk BID, individual animals): 53400 and 20000 and 196300 and 26700 and 124800 and 27500 and 26500 and 61600 and 54600 | neutrophils, cell count in BALF (C57BL/6 mice; 30mpk BID, individual animals): 0 and 400 and 1300 and 900 | Lung function (Penh) (C57BL/6 mice; [1]): 0.6758 and 0.6536 and 0.6784 and 0.8035 and 0.7941 and 0.8536 and 2.1862 and 0.7195 and 0.614 and 0.4863 and 3.086 and 0.8355 and 0.9151 | Masson Trichrome's staining (C57BL/6 mice; [1]): 13.42 and 12.85 and 13.06 and 0.67 and 7.67 and 20.55 and 0.21 and 52.81 and 60.17 and 6.1 | Modified Ashcroft Score (C57BL/6 mice; [1]): 4.5 and 1.5 and 6 and 3.25 | collagen I (C57BL/6 mice; [1]): 1.64 and 0.35 and 0.02 and 1.98 and 3.34 and 1.23 and 0.25 and 0.51 and 0.22 and 0.32 | α-SMA (C57BL/6 mice; [1]): 0.37 and 0.33 and 0.09 and 0.57 and 0.58 and 0.29 | Lung function (Penh) (C57BL/6 mice; [2]): 0.921 and 0.5921 and 0.7137 and 3.621 and 0.8031 and 0.5775 and 0.6428 and 0.5842 and 0.678 and 0.5758 and 0.618 and 0.6177 and 0.711 | Masson Trichrome's staining (C57BL/6 mice; [2]): 19.44 and 0.05 and 6.38 and 17.98 and 0.22 and 11.46 and 0.26 and 36.84 and 1 and 0.45 | Modified Ashcroft Score (C57BL/6 mice; [2]): 1.25 and 2.5 and 0.75 and 3 and 4.5 and 0.25 | collagen I (C57BL/6 mice; [2]): 0.04 and 2.29 and 0.08 and 0.17 and 0.07 and 0.11 and 0.36 and 0.22 and 2.99 and 3.49
